From patent publication US7615361B2, “Toxicity screening methods” (Ceetox, Inc., priority 2006, dated 2009)
Values after ≈ are worked out from the molar mass of the structure shown. Where two headings read alike, the source gives them in different places.

What was measured:
[1] = Cell number (propidium iodide); type: cell-based, rat; conditions: rat; H4IIE, 24 HR exposure; read-out: Cell Number TC50
Outline: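 Rat hepatoma H4IIE cells exposed to compound in complete medium, then lysed with Triton X-100 containing propidium iodide; fluorescence read at 540/610 nm. Blank-subtracted RFU expressed as percent of untreated control cells, means of n=3-7.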

[2] = Solubility in culture medium (nephelometry); type: physicochemical; conditions: 37 °C, plasma or biological fluid, kinetic from dmso stock
Method: Solubility: The test compounds were prepared in DMSO and the appropriate amounts were then added to complete medium containing 10% bovine serum […] at 37° C. The samples were evaluated using a light scattering technique and a Nephaloskan instrument.
Solubility Assay: The test compounds were prepared in DMSO and the appropriate amounts were then added to complete medium containing 10% bovine serum at 37° C. The samples were evaluated using a light scattering technique and a Nephaloskan instrument.

H4IIE cells = test: Predicted Ctox from Tox-Panel; type: cell-based, rat; conditions: 24 HR, estimated sustained plasma concentration where toxicity would be expected in vivo
Outline: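 Ctox is taken as the NOEL from 24 h concentration-response profiles in H4IIE cells, covering at least cell replication, mitochondrial function and membrane integrity. Each indicator is expressed as a percentage of the compound-free control. It estimates the sustained toxic plasma concentration in vivo.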

MTT reduction [3] = type: cell-based, rat; conditions: rat; H4IIE, 24 HR exposure; read-out: MTT TC50
Outline: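 Rat hepatoma H4IIE cells exposed to compound prepared in complete culture medium, with tetrazolium dye (MTT) reduction used as a mitochondrial-function read-out of cytotoxicity. Values are means of each exposure group (n=3-7).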

MTT reduction [4] = type: cell-based, rat; conditions: rat cardiomyocytes (CM), 24 HR exposure; read-out: MTT TC50
Outline: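 Cardiomyocytes from neonatal rats were exposed to the compound and cell function was monitored by tetrazolium (MTT) dye reduction. Values are group means over n=3-7.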

SMILES: C=C(C)[C@H]1Cc2c(ccc3c2O[C@@H]2COc4cc(OC)c(OC)cc4[C@@H]2C3=O)O1 [ROTENONE, Rotenone]
- CC50 at 24 h [1]: 0.04 µM
- solubility ([2]; culture media containing 20% serum, NRK 6 HR, read-out: Highest Soluble Concentration): 10 µM (≈ 3.94 µg/mL)
- solubility ([2]; culture media containing 20% serum, NRK 24 HR, read-out: Highest Soluble Concentration): 10 µM (≈ 3.94 µg/mL)
- solubility ([2]; dosing medium with 20% serum, 37° C., CM 24 HR, read-out: Highest Soluble Concentration Tested): 100 µM (≈ 39.4 µg/mL)
- solubility ([2]; dosing medium with 20% serum, 37° C., H4IIE 24 HR, read-out: Highest Soluble Concentration Tested): 100 µM (≈ 39.4 µg/mL)
- solubility ([2]; dosing medium, 37° C., C32 24 HR, read-out: Highest Soluble Concentration): 10 µM (≈ 3.94 µg/mL)
- solubility ([2]; dosing medium, 37° C., HUVEC 24 HR, read-out: Highest Soluble Concentration): 10 µM (≈ 3.94 µg/mL)
- solubility ([2]; dosing medium, 37° C., NHEM 24 HR, read-out: Highest Soluble Concentration): 100 µM (≈ 39.4 µg/mL)
- solubility ([2]; dosing medium, 37° C., SK-MEL28 24 HR, run #2, read-out: Highest Soluble Concentration): 100 µM (≈ 39.4 µg/mL)
- solubility ([2]; dosing medium, 37° C., SK-MEL28 24 HR, read-out: Highest Soluble Concentration): 10 µM (≈ 3.94 µg/mL)
- solubility ([2]; dosing medium, 37° C., SK-MEL28 72 HR, run #2, read-out: Highest Soluble Concentration): 100 µM (≈ 39.4 µg/mL)
- solubility ([2]; dosing medium, 37° C., human hepatocytes 24 HR, read-out: Highest Soluble Concentration): 10 µM (≈ 3.94 µg/mL)
- Predicted Ctox (H4IIE cells): 0.03 µM
- CC50 at 24 h (MTT reduction [3]): 0.07 µM
- CC50 at 24 h (MTT reduction [4]): 33 µM
